Measured values as given in patent US20060111305A1, “Metabolites of certain [1,4]diazepino[6,7,1-ij]quinoline derivatives and methods of preparation and use thereof” (Wyeth, priority 2004, published 2006).

Experiment: Dog fecal excretion and metabolite profiles after oral capsule of [14C]DCDQ
Type: in vivo, beagle dogs
Description: Blood samples were collected from the jugular vein at 2, 4, 8, 24 and 48 hour after dose administration into tubes containing potassium EDTA as the anticoagulant and then placed on ice. Aliquots of 50 μL were removed for combustion and determination of radioactivity content. Plasma was immediately obtained from the remaining blood by centrifugation at 4° C. Urine samples were collected into tubes on dry ice at intervals of 0-8, 8-24 and 24-48 hour post-dose. Fecal samples were collected at intervals of 0-8, 8-24 and 24-48 hour post-dose at room temperature, and were homogenized. The biological specimens were stored at approximately −70° C. until analysis.
Feces were weighed and homogenized in water at a volume-to-weight ratio of about 5:1. Aliquots of blood (200 μL) and fecal homogenates (0.25-0.53 gram) were placed on Combusto-cones with Combusto-pads and combusted. A model 307 Tri-Carb sample oxidizer, equipped with an Oximate-80 robotic automatic sampler (Perkin Elmer), was used for combustion of blood and fecal samples. The liberated ^14CO2 was trapped with Carbo-Sorb E carbon dioxide absorber, mixed with PermaFluor® E+ liquid scintillation cocktail, and counted on a Tri-Carb Model 3100 TR/LL liquid scintillation counter (Perkin Elmer). The efficiency of combustion was 98.9%.
Fecal homogenates were analyzed for metabolite profiles. Aliquots of 1 gram of fecal homogenate were mixed with 2 mL methanol, placed on ice for about 10 minutes and centrifuged. The supernatant was transferred to a clean tube. The residue was extracted three times with 2 mL of a water:methanol (3:7) mixture. The supernatants from each sample were combined, evaporated to about 1 mL, and centrifuged. Extraction efficiency was determined by analyzing aliquots of 10 μL of the supernatant for radioactivity. An aliquot (50-200 μL) of the supernatant was analyzed by HPLC with radioactivity flow detection for metabolite profiles. Samples were also analyzed by LC/MS to characterize the radioactive peaks.
A Waters model 2690 HPLC system (Waters Corp., Milford, Mass.) with a built-in autosampler was used for analysis. Separations were accomplished on a Phenomenex Luna C18(2) column (150×2.0 mm, 5 μm) (Phenomenex, Torrance, Calif.). The sample chamber of the autosampler was maintained at 4° C., while the column was at ambient temperature of about 20° C. A variable wavelength UV detector set to monitor 250 nm and a Flo-One β Model A525 radioactivity detector were used for data acquisition. The HPLC mobile phase consisted of 10 mM ammonium acetate, pH 4.5 (A) and acetonitrile (B), and was delivered at 0.2 mL/min. Chromatographic condition A was used for dose analysis, while condition B was used for analysis of urine and plasma, brain and fecal extracts.

Row | metabolite detected in feces | Structure (SMILES)
1 | not detected | O=C(O)[C@H]1O[C@@H](OC(=O)N2CCN3C[C@@H]4CCC[C@@H]4c4cccc(c43)C2)[C@H](O)[C@@H](O)[C@@H]1O [Metabolite M6, carbamoyl glucuronide of DCDQ]
2 | detected | OC1[C@@H]2CCC[C@@H]2c2cccc3c2N1CCNC3 (some centres unmarked) [Metabolite M2, hydroxy DCDQ]
